Experimental data as given in patent US10111874B2, “Combination therapies for treatment of cancer” (Araxes Pharma LLC, priority 2014, dated 2018).

biological target: T1, KRAS G12C 1-169, his-tagged protein, GDP-loaded (Homo sapiens, UniProt P01116, G12C); test: Biochemical assay: covalent binding to KRAS G12C analyzed by mass spectrometry; details: compounds 1-47, measured at 24 h; further: test concentration or dose not given here
T1 construct: KRAS G12C 1-169, his-tagged protein, GDP-loaded
T1 sequence (P01116 1-169 isoform P01116-2 G12C): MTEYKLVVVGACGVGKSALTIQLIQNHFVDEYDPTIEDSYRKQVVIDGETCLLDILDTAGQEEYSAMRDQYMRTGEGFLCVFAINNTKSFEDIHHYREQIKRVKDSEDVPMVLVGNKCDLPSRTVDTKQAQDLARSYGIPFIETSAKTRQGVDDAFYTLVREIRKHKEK

Compound	Binding %
C=CC(=O)N1CCN(c2ncnc3cc(Cl)c(-c4ccc(C)s4)cc23)CC1 [Compound I-26, 1-(4-(7-chloro-6-(5-methylthiophen-2-yl)quinazolin-4-yl)piperazin-1-yl)prop-2-en-1-one]	++ (++indicates binding activity greater than 25% and up to 50%)
C=CC(=O)N1CCN(c2ncnc3cc(Cl)c(-c4ccc(Cl)cc4OC)cc23)CC1 [Compound I-13, 1-(4-(7-chloro-6-(4-chloro-2-methoxyphenyl)quinoazlin-4-yl)piperazin-1-yl)prop-2-en-1-one]	++ (++indicates binding activity greater than 25% and up to 50%)
C=CC(=O)N1CCN(c2ncnc3cc(Cl)c(-c4cccc(O)c4)cc23)CC1 [Compound I-14, 1-(4-(7-chloro-6-(3-hydroxyphenyl)quinazolin-4-yl)piperazin-1-yl)prop-2-en-1-one]	++ (++indicates binding activity greater than 25% and up to 50%)
C=CC(=O)N1CCN(c2ncnc3cc(Cl)c(N4CCOCC4)cc23)CC1 [Compound I-32, 1-(4-(7-chloro-6-morpholinoquinazolin-4-yl)piperazin-1-yl)prop-2-en-1-one]	+ (+indicates binding activity from 5% to 25%)

same assay, conditions: compounds 48-246, measured at 2 h

Compound	Binding %
C=CC(=O)N1CCN(c2ncnc3cc(-c4ccccc4S(N)(=O)=O)c(Cl)cc23)CC1 [Compound I-213, 2-(4-(4-acryloylpiperaqzin-1-yl)-6-chloroquinazolin-7-yl)benzenesulfonamide]	++ (++indicates binding activity greater than 25% and up to 50%)
C=CC(=O)N1CCN(c2cnnc3cc(-c4ccccc4C(F)(F)F)c(Cl)cc23)CC1 [Compound I-225, 1-(4-(6-chloro-7-(2-(trifluoromethyl)phenyl)cinnolin-4-yl)piperazin-1-yl)prop-2-en-1-one]	++ (++indicates binding activity greater than 25% and up to 50%)
C=CC(=O)N1CCN(c2ncnc3cc(-c4ccccc4F)c(O)cc23)CC1 [Compound I-163, 1-(4-(7-(2-fluorophenyl)-6-hydroxyquinazolin-4-yl)piperazin-1-yl)prop-2-en-1-one]	+ (+indicates binding activity from 5% to 25%)
C=CC(=O)N1CCN(c2ncnc3cc(-c4ccc(Cl)cc4)c(Cl)cc23)CC1 [Compound I-78, 1-(4-(6-chloro-7-(4-chlorophenyl)quinazolin-4-yl)piperazin-1-yl)prop-2-en-1-one]	+ (+indicates binding activity from 5% to 25%)
CN(C)C/C=C/C(=O)N1CCN(c2ncnc3cc(-c4ccc(F)cc4F)c(Cl)cc23)CC1 [Compound I-219, (E)-1-(4-(6-chloro-7-(2,4-difluorophenyl)quinazolin-4-yl)piperazin-1-yl)-4-(dimethylamino)but-2-en-1-one]	+ (+indicates binding activity from 5% to 25%)
C=CC(=O)N1CCN(c2ncnc3cc(Cl)c(-c4ccc(Cl)cc4)cc23)CC1CC#N (centres unmarked) [Compound I-70, 2-(1-acryloyl-4-(7-chloro-6-(4-chlorophenyl)quinazolin-4-yl)piperazin-2-yl)acetonitrile]	+++ (+++indicates binding activity greater than 50% and up to 75%)
C=CC(=O)N1CCN(c2cnnc3cc(-c4ccc(F)cc4F)c(Cl)cc23)CC1 [Compound I-221, 1-(4-(6-chloro-7-(2,4-difluorophenyl)cinnolin-4-yl)piperazin-1-yl)prop-2-en-1-one]	++ (++indicates binding activity greater than 25% and up to 50%)
C=CC(=O)N1CCN(c2ncnc3cc(-c4cccc(C(=O)NC5CC5)c4)c(Cl)cc23)CC1 [Compound I-142, 3-(4-(4-acryloylpiperazin-1-yl)-6-chloroquinazolin-7-yl)-N-cyclopropylbenzamide]	+ (+indicates binding activity from 5% to 25%)
C=CC(=O)N1CCN(c2ncnc3cc(-c4ccccc4C(C)C)c(Cl)cc23)CC1 [Compound I-99, 1-(4-(6-chloro-7-(2-isopeopylphenyl)quinazolin-4-yl)piperazin-1-yl)prop-2-en-1-one]	+++ (+++indicates binding activity greater than 50% and up to 75%)
C=CC(=O)N1CCN(c2ncnc3cc(-c4cccs4)c(Cl)cc23)CC1 [Compound I-185, 1-(4-(6-chloro-7-(thiophen-2-yl)quinazolin-4-yl)piperazin-1-yl)prop-2-en-1-one]	++ (++indicates binding activity greater than 25% and up to 50%)
C=CC(=O)N1CCN(c2ncnc3cc(-c4ccccc4CC#N)c(Cl)cc23)CC1 [Compound I-168, 2-(2-(4-(4-acryloylpiperazin-1-yl)-6-chloroquinazolin-7-yl)phenyl)acetonitrile]	++ (++indicates binding activity greater than 25% and up to 50%)
C=CC(=O)N1CCN(c2c(C#N)cnc3cc(-c4cc(O)ccc4Cl)c(Cl)cc23)CC1 [Compound I-184, 4-(4-acryloylpiperazin-1-yl)-6-chloro-7-(2-chloro-5-hydroxyphenyl)quinoline-3-carbonitrile]	++++ (++++indicates binding activity greater than 75%)
CC(C)/C=C(\C#N)C(=O)N1CCN(c2ncnc3cc(-c4ccccc4F)c(Cl)cc23)CC1 [Compound I-241, (E)-2-(4-(6-chloro-7-(2-fluorophenyl)quinazolin-4-yl)piperazine-1-carbonyl)-4-methylpent-2-enenitrile]	+ (+indicates binding activity from 5% to 25%)
C=CC(=O)N1CCN(c2ncnc3cc(-c4ccccc4C(F)(F)F)c(Cl)cc23)CC1CC#N (centres unmarked) [Compound I-125, 2-(1-acryloyl-4-(6-chloro-7-(2-(trifluoromethyl)phenyl)quinazolin-4-yl)piperazin-2-yl)acetonitrile]	++++ (++++indicates binding activity greater than 75%)
C=CC(=O)N1CCN(c2c(C#N)cnc3cc(-c4ccccc4C(F)(F)F)c(Cl)cc23)CC1 [Compound I-173, 4-(4-acryloylpiperazin-1-yl)-6-chloro-7-(2-(trifluoromethyl)phenyl) quinoline-3-carbonitrile]	++++ (++++indicates binding activity greater than 75%)
C=CC(=O)N1CCN(c2ncnc3cc(-c4c(C)ccc5[nH]ncc45)c(Cl)cc23)CC1 [Compound I-140, 1-(4-(6-chloro-7-(5-methyl-1H-indazol-4-yl)quinazolin-4-yl)piperazin-1-yl)prop-2-en-1-one]	+++ (+++indicates binding activity greater than 50% and up to 75%)
C=CC(=O)N1CCN(c2ncnc3cc(-c4ccccc4C(F)(F)F)ccc23)CC1 [Compound I-157, 1-(4-(7-(2-(trifluoromethyl)phenyl)quinazolin-4-yl)piperazin-1-yl)prop-2-en-1-one]	+ (+indicates binding activity from 5% to 25%)
C=CC(=O)N1CCN(c2ncnc3cc(-c4c(F)ccc(F)c4O)c(Cl)cc23)CC1 [Compound I-216, 1-(4-(6-chloro-7-(3,6-difluoro-2-hydroxyphenyl)quinazolin-4-yl)piperazin-1-yl)prop-2-en-1-one]	+ (+indicates binding activity from 5% to 25%)

same assay, conditions: compounds 247-342, measured at 30 min

Compound	Binding %
C=CC(=O)N1CCN(c2nc(Nc3cnn(C)c3)nc3c(F)c(-c4c(C)ccc5[nH]ncc45)c(Cl)cc23)CC1 [Compound 322, 1-(4-(6-chloro-8-fluoro-7-(5-methyl-1H-indazol-4-yl)-2-(1-methyl-1H-pyrazol-4-ylamino)quinazolin-4-yl)piperazin-1-yl)prop-2-en-1-one]	+++ (+++indicates binding activity greater than 50% and up to 75%)
C=CC(=O)N1CCN(c2ncnc3cc(-c4cccc(-c5ccn[nH]5)c4)c(Cl)cc23)CC1 [Compound I-276, 1-(4-(7-(3-(1H-pyrazol-5-yl)phenyl)-6-chloroquinazolin-4-yl)piperazin-1-yl)prop-2-en-1-one]	+ (+indicates binding activity from 5% to 25%)
C=CC(=O)N1CCN(c2ncnc3c(F)c(-c4cc(C(F)F)cc5ccccc45)c(Cl)cc23)CC1 [Compound 337]	+ (+indicates binding activity from 5% to 25%)
C=CC(=O)N1CCN(c2ncnc3c(F)c(-c4ccccc4C(C)(C)O)c(Cl)cc23)CC1 [Compound I-278, 1-(4-(6-chloro-8-fluoro-7-(2-(2-hydroxypropan-2-yl)phenyl)quinazolin-4-yl)piperazin-1-yl)prop-2-en-1-one]	++ (++indicates binding activity greater than 25% and up to 50%)
C=CC(=O)N1CCN(c2ncnc3cc(-c4cc(OC)cc5ccccc45)c(Cl)cc23)CC1 [Compound I-249, 1-(4-(6-chloro-7-(3-methoxynaphthalen-1-yl)quinazolin-4-yl)piperazin-1-yl)prop-2-en-1-one]	+ (+indicates binding activity from 5% to 25%)

same assay, conditions: compounds 247-342, measured at 30 min; listed as 256

Compound	Binding %
C=CC(=O)N1CCN(c2ncnc3c(F)c(-c4cc(O)cc5ccccc45)c(Cl)cc23)CC1 [Compound I-256, 1-(4-(6-chloro-8-fluoro-7-(3-hydroxynaphthalen-1-yl)quinazolin-4-yl)piperazin-1-yl)prop-2-en-1-one]	+++ (+++indicates binding activity greater than 50% and up to 75%)

same assay, conditions: determined at 2 hrs

Compound	Binding %
C=CC(=O)N1CC(N2CCN(C(=O)Cc3c[nH]c4cc(Cl)c(Cl)cc34)CC2)C1 [II-61, 1-(3-(4-(2-(5,6-Dichloro-1H-indol-3-yl)acetyl)piperazin-1-yl)azetidin-1-yl)prop-2-en-1-one]	+ (+indicates binding activity from 5% to 20%)
C=CC(=O)N1CCN(C(=O)c2cc(-c3ccc(Cl)cc3)c(Cl)cc2O)CC1C#N (centres unmarked) [III-37, 1-acryloyl-4-(4′,6-dichloro-4-hydroxybiphenylcarbonyl)piperazine-2-carbonitrile]	++ (++indicates binding activity greater than 20%)

same assay, conditions: determined at 24 hrs

Compound	Binding %
C=CC(=O)N1CC(N2CCN(C(=O)Cn3ccc4cc(Cl)c(Cl)cc43)CC2)C1 [II-30, 1-(3-(4-(2-(5,6-dichloro-1H-indol-1-yl)acetyl)piperazin-1-yl)azetidin-1-yl)prop-2-en-1-one]	+ (+indicates binding activity from 5% to 15%)
C=CC(=O)N1CC(N2CCC(C(=O)NCc3cc(Cl)c(Cl)cc3O)CC2)C1 [II-17, 1-(1-acryloylazetidin-3-yl)-N-(4,5-dichloro-2-hydroxybenzyl)piperidine-4-carboxamide]	++ (++indicates binding activity greater than 15% and up to 25%)
